Experiment: xn = mol fraction of the nth substance listed
Details: 100 kPa, Liquid; for mass density: 308.15 K, Vibrating tube method; for speed of sound: 313.15 K, Frequency=5 MHz, Pulse-echo method

OCCCCCO [1,5-pentanediol] + O
Details | mass density [kg/m3] | speed of sound [m/s]
x1 = 0.0002 | – | 1529.3
x1 = 0.0004 | – | 1529.9
x1 = 0.0006 | – | 1530.6
x1 = 0.0009 | – | 1531.5
x1 = 0.0013 | – | 1532.4
x1 = 0.0016 | – | 1533.4
x1 = 0.002 | – | 1534.5
x1 = 0.0025 | – | 1535.9
x1 = 0.0032 | – | 1537.6
x1 = 0.0039 | – | 1539.6
x1 = 0.0045 | – | 1541.2
x1 = 0.0052 | – | 1542.9
x1 = 0.0058 | – | 1544.6
x1 = 0.0065 | – | 1546.5
x1 = 0.0073 | – | 1548.3
x1 = 0.0081 | – | 1550.4
x1 = 0.0088 | – | 1552.1
x1 = 0.0097 | – | 1554.2
x1 = 0.0107 | – | 1556.6
x1 = 0.0118 | – | 1559
x1 = 0.013 | – | 1561.7
x1 = 0.0142 | – | 1564.4
x1 = 0.0153 | – | 1566.8
x1 = 0.0164 | – | 1569.2
x1 = 0.0176 | – | 1571.6
x1 = 0.0187 | – | 1573.8
x1 = 0.02 | – | 1576.4
x1 = 0.0214 | – | 1579
x1 = 0.0227 | – | 1581.5
x1 = 0.0243 | – | 1584.4
x1 = 0.0259 | – | 1587.2
x1 = 0.0276 | – | 1590
x1 = 0.0293 | – | 1592.8
x1 = 0.0308 | – | 1595.3
x1 = 0.0322 | – | 1597.4
x1 = 0.0341 | – | 1600.2
x1 = 0.036 | – | 1602.9
x1 = 0.0378 | – | 1605.4
x1 = 0.0395 | – | 1607.7
x1 = 0.0417 | – | 1610.5
x1 = 0.0441 | – | 1613.4
x1 = 0.0462 | – | 1615.8
x1 = 0.0486 | – | 1618.4
x1 = 0.0505 | – | 1620.4
x1 = 0.0522 | – | 1622.1
x1 = 0.0542 | – | 1624.1
x1 = 0.0571 | – | 1626.6
x1 = 0.0588 | – | 1628.1
x1 = 0.0608 | – | 1629.8
x1 = 0.0624 | – | 1631.2
x1 = 0.0648 | – | 1632.9
x1 = 0.0682 | – | 1635.4
x1 = 0.0705 | – | 1636.9
x1 = 0.0732 | – | 1638.6
x1 = 0.0767 | – | 1640.7
x1 = 0.0802 | – | 1642.6
x1 = 0.0837 | – | 1644.2
x1 = 0.0875 | – | 1646
x1 = 0.0918 | – | 1647.7
x1 = 0.0975 | – | 1649.7
x1 = 0.1013 | – | 1650.9
x1 = 0.106 | – | 1652.2
x1 = 0.1096 | – | 1653
x1 = 0.2503 | 995.17 | –
x1 = 0.3 | 994.06 | –
x1 = 0.3343 | 993.37 | –
x1 = 0.4171 | 991.68 | –
x1 = 0.454 | 990.78 | –
x1 = 0.5003 | 989.8 | –
x1 = 0.5362 | 989.1 | –
x1 = 0.6177 | 987.6 | –
x1 = 0.6478 | 987 | –
x1 = 0.7025 | 986.1 | –
x1 = 0.7504 | 985.3 | –
x1 = 0.7927 | 984.6 | –
x1 = 0.8605 | 983.4 | –
x1 = 0.9004 | 982.7 | –
x1 = 0.9496 | 981.7 | –
x1 = 1 | 980.7 | –
